These results are taken from the METLIN SMRT retention time set (Domingo-Almenara et al. 2019).

Molecules are shown by their SMILES.

The nature of the data set: gradient 5% acetonitrile 3 min, to 50% in 2 min, to 85% in 15 min, held 3 min, 100 µL/min. To be noted: column: Zorbax Extend-C18 2.1 x 50 mm; eluents: water / acetonitrile, 0.1% formic acid. An outline of the steps: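 Each retention time is based on an adduct peak selected computationally and verified by manual inspection. Measurements used HPLC–quadrupole time-of-flight mass spectrometry in positive and negative ionization mode on mixtures of ~100 pure standards. Chromatography ran on a Zorbax Extend-C18 column (2.1 × 50 mm, 1.8 μm) at 100 μL/min with water and acetonitrile, each containing 0.1% formic acid, and dead and dwell volumes of 40 μL and 900 μL.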
Compound `O=c1c2sccc2n(Cc2nc(-c3ccc(C(F)(F)F)cc3)no2)c(=O)n1Cc1ccccc1` displayed an RP-LC retention time of 1200 s. In turn, `CNC(=O)c1c(NC(=O)c2cccc(OC)c2)sc2c1CCC2` gave an RP-LC retention time of 1050 s.

Consider `COc1cc(NC(=O)Nc2cccc(CNC(=O)O[C@H]3CCOC3)c2)ccc1-c1cnco1`, for which the RP-LC retention time was found to be 838 s.

Compound `CC(=O)N1CCC(C(=O)Nc2nccs2)CC1` displayed an RP-LC retention time of 584 s. The compound `CCn1cc(-c2ccccc2)cc1C(=O)NC(C)c1ccccn1` (stereo not drawn) yielded an RP-LC retention time of 749 s.

As for `CCn1cc(C(=O)Nc2cccc(Cl)c2)c(S(=O)(=O)N2CCSCC2)n1`, the RP-LC retention time is 890 s. For `Cc1ccc(-c2nc(-c3ccc4nncn4c3)no2)cc1F` the value was 764 s; for `CCCCNC(=O)C1CCCN(c2ccc(-c3ccc(C)c(C)c3)nn2)C1` (stereo not drawn), 735 s.

`Cc1ccc(NC(=O)Cn2c(=O)n(-c3ccc(F)cc3)c(=O)c3c2cc(C)n3C)c(C)c1` had an RP-LC retention time of 879 s. The same measure for `COc1ccc(Cl)cc1NC(=O)c1sc(-c2cn(C)c3ncccc23)nc1C`: 1220 s. As to `CCOc1cccc(-c2noc(-c3nnn4c3COC(c3cccc(OC)c3)C4)n2)c1` (stereo not drawn), the RP-LC retention time is 1210 s. For `CCOC(=O)c1c(C)c(CCC(=O)NCCN2CCOCC2)n(C)c1C` the value was 597 s.

`Cc1oc(C2CCN(C(=O)Nc3cccc(Cl)c3C)CC2)nc1C(=O)N(C)C` displayed an RP-LC retention time of 728 s. For `CCC(=O)N1CCC(C2CCN(S(=O)(=O)c3ccccc3)CC2)C1` (stereo not drawn) the value was 788 s; for `O=C(N1CCCC1c1noc(COCc2ccccc2)n1)C1(c2ccccc2)CC1` (stereo not drawn), 1040 s. The same measure for `CCn1c(=O)c2cc(C(=O)Nc3ccc(C(F)(F)F)cc3)nn2c2ccccc21`: 1090 s; for `O=C(Nc1cccc(F)c1)C1CCN(S(=O)(=O)c2cc(-c3noc(C4CCC4)n3)cs2)CC1`: 1110 s. The same measure for `O=C(NCCc1ccco1)C1CCN(c2nc3cccnc3s2)CC1`: 697 s.

Regarding `Cc1cccc(C2(O)C(=O)N(CC(=O)NCc3ccco3)c3ccccc32)c1` (stereo not drawn), the RP-LC retention time turned out to be 630 s.

On to `COc1cccc(-c2noc(Cc3nnc(-c4cccc(Br)c4)o3)n2)c1OC`, for which the RP-LC retention time turned out to be 1010 s. Turning to `O=C(Nc1ccc(N2CCOCC2)cc1)c1ccc2nc(-c3ccccc3)cn2c1`, the RP-LC retention time is 646 s. For `O=C(CCc1nc(-c2ccc(N3CCCC3)cc2)no1)N1CCC2(CC1)OCCO2` the value was 945 s.

`Cc1cc(C)c(-c2csc(Nc3ccc(F)cn3)n2)cc1C` had an RP-LC retention time of 1210 s. For `Cc1ccc(NC(=O)C2CCN(S(=O)(=O)c3ccc4c(c3)CCCC(=O)N4)CC2)cc1F` the value was 817 s; for `Cc1nc(N2CCN(Cc3ccccc3)CC2)nc2c1C(=O)CC(c1ccc(Cl)cc1)C2` (stereo not drawn), 825 s. `Cc1noc(C)c1S(=O)(=O)N1CCC(C(C)C(=O)N2CCN(C3CCCCC3)CC2)CC1` (stereo not drawn) yielded an RP-LC retention time of 654 s. The same measure for `COc1cccc(Cn2ccn3nc(-c4ccc(OC)c(OC)c4)cc3c2=O)c1`: 916 s; for `O=C(NCc1ccc2c(c1)OCO2)C1CCCN(C(=O)c2cc(-c3cccnc3)n[nH]2)C1` (stereo not drawn): 584 s.

`Nc1cc(C2CCN(C(=O)Cc3ccc(F)cc3)CC2)no1` showed an RP-LC retention time of 684 s. The same measure for `Cn1nc(C(=O)N2C[C@@H]3C[C@H](NC(=O)c4cccs4)[C@H]2C3)c2ccccc21`: 778 s. The same measure for `CC(=O)N1CCc2sc(S(=O)(=O)N3CCN(c4cccc(C)c4C)CC3)cc2C1`: 1030 s; for `O=C(Cc1ccc(F)cc1)Nc1ccccc1NC(=O)c1cccc(Cl)c1`: 897 s; for `O=c1c2cnn(-c3ccc(F)cc3)c2ncn1Cc1nc(-c2ccccc2)no1`: 1010 s.

As for `COc1ccc(CCNC(=O)C2=C3CCCN3c3ccc(F)cc3S2(=O)=O)cc1OC`, the RP-LC retention time came to 790 s. With `Cc1cccc(NC(=O)c2cc(C)n3nccc3n2)c1`, the RP-LC retention time is 955 s. Consider `CC(=O)N1CCc2ccc(NC(=O)c3cccc(Br)c3)cc21`, for which the RP-LC retention time came to 774 s. The same measure for `O=C(Nc1sc2c(c1C(c1ccncc1)N1CCN(c3ccccn3)CC1)CCCC2)c1ccco1` (stereo not drawn): 630 s; for `CCN1CCn2cc(S(=O)(=O)Nc3ccc(F)cc3)cc2C1=O`: 696 s; for `Cc1ccccc1-n1c(Cn2nc(-c3cccc(O)c3)c3c(N)ncnc32)nc2cccc(C)c2c1=O`: 778 s. The same measure for `O=C(c1ccsc1)N1CCC(c2nc(-c3ccc(F)cc3)n[nH]2)CC1`: 726 s; for `Cc1ccc(NC(=O)Nc2ccc(NC(=O)N3CCCC(C(=O)NCC4CC4)C3)cc2)cc1` (stereo not drawn): 779 s; for `O=C(NCCCn1nc(-c2ccco2)ccc1=O)c1cc(Cl)ccc1Cl`: 737 s. For `CCC(C)NC(=O)Cn1cccc(-c2nc(-c3ccc(Br)cc3)no2)c1=O` (stereo not drawn) the value was 870 s; for `CCCNC(=O)C1CCCN(S(=O)(=O)c2cc(-c3noc(CC)n3)cs2)C1` (stereo not drawn), 841 s; for `O=C1N(c2cccc(F)c2)c2ncccc2S(=O)(=O)N1Cc1cccc(F)c1`, 1030 s. On to `CCn1cc(C(=O)N[C@@H](C)C(=O)O)c(=O)c2cc3c(cc21)OCO3`, for which the RP-LC retention time turned out to be 631 s. For `Cc1cccc(NC(=O)C2(C)Oc3cccnc3N(C)C2=O)c1C` (stereo not drawn) the value was 808 s; for `O=C(Cc1cccs1)NC1CCc2nnc(C3CC3)n2CC1` (stereo not drawn), 598 s; for `Cc1ccc(S(=O)(=O)N(C)CC2CCOCC2)c(C)c1`, 896 s. Consider `CC(=O)N1CCc2c([nH]c3ccccc23)C12C(=O)N(CCC(C)C)c1ccc(Br)cc12` (stereo not drawn), for which the RP-LC retention time was 1040 s.

Turning to `CCCSc1nnc(CNC(=O)c2ccccc2F)n1-c1cccc(C(F)(F)F)c1`, the RP-LC retention time amounted to 831 s. For `O=C(Nc1ccc2c(c1)CN(C(=O)c1ccccc1)CC2)c1ccc(Br)o1` the value was 819 s; for `O=C(CN1C(=O)C2CCCCN2c2ccc(S(=O)(=O)N3CCCC3)cc21)N1CCCCC1` (stereo not drawn), 872 s. The same measure for `CCCn1ccc2sc(C)c(C(=O)NCc3ccc(C)cc3)c2c1=O`: 948 s; for `Cc1ccc(NS(=O)(=O)c2cc(-c3[nH]ncc3C(=O)N3CCCC3)oc2C)cc1F`: 741 s; for `COc1ccc(-c2nnc(COc3cccc(NC(=O)c4ccsc4)c3)o2)cc1`: 914 s. For `Cc1cccc(-n2cc(C(=O)OCC(=O)OC(C)(C)C)c3ccccc3c2=O)c1`, the RP-LC retention time was found to be 1210 s. For `CC(NC(=O)c1cc2sccc2n1C)c1ccc2c(c1)OCCO2` (stereo not drawn) the value was 903 s; for `Cn1ncc2c(N3CCSCC3)nc(C(=O)NCc3ccc(F)cc3)nc21`, 823 s. For `O=C(Nc1ccc2c(c1)OCO2)C(=O)NC1CC1` the value was 677 s; for `COCCNC(=O)C1COC2(CCCCC2)N1C(=O)c1cccc(C(F)(F)F)c1` (stereo not drawn), 814 s; for `O=C(c1ccoc1)N1CC(n2cc(COCc3ccccc3)nn2)C1`, 734 s. For `Cc1sc2ccn(C)c(=O)c2c1C(=O)N1CCC2(CC1)OCCO2` the value was 626 s; for `Cc1nc(-c2csc(S(=O)(=O)N3CCCC(C(=O)Nc4ccc(F)c(Cl)c4)C3)c2)no1` (stereo not drawn), 1010 s.

Regarding `Cc1ccc(CNC(=O)Cn2nc(C(=O)N3CCOCC3)c3ccccc32)cc1`, the RP-LC retention time is 753 s. Take `CCN(CC)CCNC(=O)CN1C(=O)C2CCCCN2c2ccc(S(=O)(=O)N3CCCC3)cc21` (stereo not drawn): the RP-LC retention time turned out to be 633 s. The same measure for `CCOc1cccc(CNC(=O)c2c(C)sc3ccn(C)c(=O)c23)c1`: 804 s; for `COC(=O)c1sccc1NC(=O)Cn1c(C)cc(C)c(-c2nc(-c3ccc(F)cc3)no2)c1=O`: 1070 s. For `CCOC(=O)c1cccc(N2C=C(C(=O)N3CCCC3)S(=O)(=O)c3ccc(Cl)cc32)c1` the value was 901 s; for `Clc1ccccc1-c1nc(-c2ccncc2)no1`, 1040 s; for `Cc1ccc(C)c(S(=O)(=O)N2CCCC2c2nc(-c3ccc(Cl)cc3)no2)c1` (stereo not drawn), 1270 s. With `COc1ccc(-c2nc(C3CC(=O)N(c4ccc(Cl)cc4)C3)no2)cc1OC` (stereo not drawn), the RP-LC retention time stood at 944 s. Take `O=C(NCCCN1CCOCC1)c1c2c(nc3ccccc13)C(=O)N(C1CCCCC1)C2`: the RP-LC retention time worked out at 598 s.

As to `Cc1cccc(NC(=O)N2CCN(c3ccc(=O)n(-c4ccccc4)n3)CC2)c1`, the RP-LC retention time came to 776 s.

Regarding `O=C1CCC2(CCN1)CCN(C(=O)C1CCCCC1)CC2`, the RP-LC retention time worked out at 669 s. For `Fc1ccc(-c2ccc(-c3nn4c(-c5ccco5)nnc4s3)o2)cc1` the value was 896 s; for `CCN1C(=O)c2cccnc2Sc2cc(C(=O)NCc3ccc(F)cc3)ccc21`, 805 s; for `COc1ccc(NC(=O)Nc2ccc(-c3cn4ccc(C)nc4n3)cc2)cc1`, 626 s.
